In ChEMBL document CHEMBL2380278, “Synthesis and antibacterial evaluation of a novel series of 10-hydroxyl ketolide derivatives” (2013) one finds MIC data, which are given here for seven compounds.

In brackets after ≈: the same amount, converted by molar mass.

For test [1], the system named is Pseudomonas aeruginosa. The experiment in a line: Antibacterial activity against drug-resistant Pseudomonas aeruginosa by broth microdilution method. It counts as functional.
The subject of the next test is Salmonella typhi. The test can be described thus: Antibacterial activity against drug-resistant Salmonella typhi by broth microdilution method. It counts as functional, Salmonella enterica subsp. enterica serovar Typhi. As to conditions: Salmonella enterica.
For the next test, the system named is Klebsiella pneumoniae. The experiment in a line: Antibacterial activity against drug-resistant Klebsiella pneumoniae by broth microdilution method. It counts as functional. (Dilution methods test growth across graded concentrations, often in twofold steps.)
The test system of test [2] is Escherichia coli. The test can be described thus: Antibacterial activity against drug-resistant Escherichia coli by broth microdilution method. It counts as functional.
In test [3] the test system is Staphylococcus epidermidis. The test can be described thus: Antibacterial activity against drug-resistant Staphylococcus epidermidis by broth microdilution method. It counts as functional.
The subject of test [4] is Staphylococcus aureus. The test can be described thus: Antibacterial activity against drug-resistant Staphylococcus aureus by broth microdilution method. The test is classed as functional.
Test [5] concerns Pseudomonas aeruginosa. The experiment in a line: Antibacterial activity against Pseudomonas aeruginosa ATCC 27853 by broth microdilution method. It counts as functional.
For test [6], the system named is Escherichia coli. The test can be described thus: Antibacterial activity against Escherichia coli ATCC 35218 by broth microdilution method. The test is classed as functional.
The subject of test [7] is Escherichia coli. The experiment in a line: Antibacterial activity against Escherichia coli ATCC 25922 by broth microdilution method. It counts as functional.
In test [8] the test system is Staphylococcus aureus. The experiment in a line: Antibacterial activity against Staphylococcus aureus ATCC 25923 by broth microdilution method. The test is classed as functional.

One may read the MIC as the lowest concentration found to suppress growth. Turning to `CC[C@H]1OC(=O)[C@H](C)C(=O)[C@H](C)[C@@H](O[C@@H]2O[C@H](C)C[C@H](N(C)C)[C@H]2O)[C@](C)(OC)C[C@@H](C)C(=O)[C@@H](C)[C@H]2OC(=O)O[C@@]21C`, the MIC against Pseudomonas aeruginosa [1] is above 128 µg/mL; in the test with Salmonella typhi it was 128 µg/mL (≈ 209 µM); with Klebsiella pneumoniae, 128 µg/mL (≈ 209 µM); with Escherichia coli [2] it was 64 µg/mL (≈ 104 µM); in test [3] it was 0.0625 µg/mL (≈ 0.102 µM); with Staphylococcus aureus [4], 128 µg/mL (≈ 209 µM). The MIC against Pseudomonas aeruginosa [5] was above 128 µg/mL; in the test on Escherichia coli [6] it was 128 µg/mL (≈ 209 µM); in the test with Escherichia coli [7], 128 µg/mL (≈ 209 µM); against Staphylococcus aureus [8] it was 64 µg/mL (≈ 104 µM).
In the case of `CC[C@H]1OC(=O)[C@H](C)C(=O)[C@H](C)[C@@H](O[C@@H]2O[C@H](C)C[C@H](N(C)C)[C@H]2O)[C@](C)(OC)C[C@@H](C)C(=O)[C@@](C)(O)[C@H](O)[C@]1(C)O`, the MIC (with Pseudomonas aeruginosa [1]; with Salmonella typhi; with Klebsiella pneumoniae; against Escherichia coli [2]; in test [3]; in the test with Staphylococcus aureus [4]) was above 128 µg/mL in each case. For the same compound, the MIC in the test on Pseudomonas aeruginosa [5] was above 128 µg/mL; with Escherichia coli [6] it was above 128 µg/mL; against Escherichia coli [7], above 128 µg/mL; against Staphylococcus aureus [8], 64 µg/mL (≈ 106 µM).
`CC[C@H]1OC(=O)[C@H](C)[C@@H](O[C@H]2C[C@@](C)(OC)[C@@H](O)[C@H](C)O2)[C@H](C)[C@@H](O[C@@H]2O[C@H](C)C[C@H](N(C)C)[C@H]2O)[C@](C)(OC)C[C@@H](C)C(=O)[C@H](C)[C@@H](O)[C@]1(C)O` [CLARITHROMYCIN]: the MIC in the test on Pseudomonas aeruginosa [1] was 128 µg/mL (≈ 171 µM); in the test on Salmonella typhi, 64 µg/mL (≈ 85.6 µM); with Klebsiella pneumoniae, 64 µg/mL (≈ 85.6 µM); against Escherichia coli [2], 64 µg/mL (≈ 85.6 µM); in test [3], 64 µg/mL (≈ 85.6 µM); against Staphylococcus aureus [4] it was above 128 µg/mL. Moreover, the MIC was 64 µg/mL (≈ 85.6 µM) with Pseudomonas aeruginosa [5], 32 µg/mL (≈ 42.8 µM) in the test on Escherichia coli [6], 64 µg/mL (≈ 85.6 µM) against Escherichia coli [7] and 32 µg/mL (≈ 42.8 µM) in the test with Staphylococcus aureus [8].
With `CC[C@H]1OC(=O)[C@H](C)C(=O)[C@H](C)[C@@H](O[C@@H]2O[C@H](C)C[C@H](N(C)C)[C@H]2O)[C@](C)(OC)C[C@@H](C)C(=O)[C@H](C)[C@H]2N(CCCCn3cnc(-c4cccnc4)c3)C(=O)O[C@]12C` [TELITHROMYCIN], the MIC in the test on Pseudomonas aeruginosa [1] was 64 µg/mL (≈ 78.8 µM); in the test with Salmonella typhi, 16 µg/mL (≈ 19.7 µM); in the test on Klebsiella pneumoniae it was 16 µg/mL (≈ 19.7 µM); in the test with Escherichia coli [2] it was 32 µg/mL (≈ 39.4 µM); in test [3], 0.125 µg/mL (≈ 0.154 µM); against Staphylococcus aureus [4], 16 µg/mL (≈ 19.7 µM). Besides, the MIC against Pseudomonas aeruginosa [5] is 64 µg/mL (≈ 78.8 µM); against Escherichia coli [6] it was 8 µg/mL (≈ 9.85 µM); with Escherichia coli [7] it was 2 µg/mL (≈ 2.46 µM); against Staphylococcus aureus [8], 16 µg/mL (≈ 19.7 µM).
For the compound `CC[C@H]1OC(=O)[C@H](C)C(=O)[C@H](C)[C@@H](O[C@@H]2O[C@H](C)C[C@H](N(C)C)[C@H]2O)[C@](C)(OC)C[C@@H](C)C(=O)[C@@](C)(O)[C@H]2OC(=O)O[C@]12C`, the MIC against Pseudomonas aeruginosa [1] was above 128 µg/mL; in the test with Salmonella typhi, above 128 µg/mL; with Klebsiella pneumoniae, above 128 µg/mL; in the test on Escherichia coli [2], above 128 µg/mL; in test [3] it was 64 µg/mL (≈ 102 µM); in the test with Staphylococcus aureus [4], above 128 µg/mL. The MIC was above 128 µg/mL in the test with Pseudomonas aeruginosa [5], above 128 µg/mL in the test with Escherichia coli [6], above 128 µg/mL with Escherichia coli [7] and 128 µg/mL (≈ 203 µM) in the test on Staphylococcus aureus [8].
Take `CC[C@H]1OC(=O)[C@H](C)C(=O)[C@H](C)[C@@H](O[C@@H]2O[C@H](C)C[C@H](N(C)C)[C@H]2O)[C@](C)(OC)C[C@@H](C)C(=O)[C@@](C)(O)[C@H]2OS(=O)O[C@]12C` (stereo not given in full): the MIC in the test with Pseudomonas aeruginosa [1] was above 128 µg/mL; against Salmonella typhi it was above 128 µg/mL; in the test with Klebsiella pneumoniae it was above 128 µg/mL; with Escherichia coli [2], above 128 µg/mL; in test [3], 8 µg/mL (≈ 12.3 µM); with Staphylococcus aureus [4] it was above 128 µg/mL. Further, the MIC in the test on Pseudomonas aeruginosa [5] was above 128 µg/mL; against Escherichia coli [6], above 128 µg/mL; against Escherichia coli [7], above 128 µg/mL; against Staphylococcus aureus [8] it was 64 µg/mL (≈ 98.5 µM).
In the case of `CC[C@H]1OC(=O)[C@H](C)C(=O)[C@H](C)[C@@H](O[C@@H]2O[C@H](C)C[C@H](N(C)C)[C@H]2O)[C@](C)(OC)C[C@@H](C)C(=O)[C@]2(C)O[C@H]2[C@]1(C)O`, the MIC against Pseudomonas aeruginosa [1] is above 128 µg/mL; in the test with Salmonella typhi, above 128 µg/mL; in the test on Klebsiella pneumoniae, above 128 µg/mL; against Escherichia coli [2], above 128 µg/mL; in test [3] it was 128 µg/mL (≈ 219 µM); against Staphylococcus aureus [4], above 128 µg/mL. Also, the MIC in the test with Pseudomonas aeruginosa [5] is above 128 µg/mL; against Escherichia coli [6] it was above 128 µg/mL; against Escherichia coli [7], above 128 µg/mL; against Staphylococcus aureus [8], 128 µg/mL (≈ 219 µM).
